Laboratory results from patent US20070191291A1, “Compound antibacterial drugs comprising n-acetyl-d-glucosamine” (priority 2003, published 2007).
Read-outs that look alike come from different tables or passages of the source.

Key:
[1] = test system: irritable bowel syndrome (IBS) caused by bacterial CGC; assay: Test Example 5: preventing irritable bowel syndrome (IBS) caused by bacterial CGC; format: in vivo, rats; settings: for CGCs in the rat stools after one week of drug withdrawal / CGCs in the stools of the rats: rats, effective dosage for consecutive 10 days, 30 rats per group; for CGCs in the stools of the rats: stools observed during administration and within 1 week after drug withdrawal
Excerpt: On this basis, the rats were subjected to stimulations such as electric stimulation, intragastric administration with fructus zanthoxyli water, cold, constraint etc. in order to induce IBS, and the incidence rates of IBS of two groups were observed.

Nucleic Acid Bacter = assay: Test Example 2: preventing formation of bacterial CGC in vitro (K-B method); format: cell-based
Description: (§1) E. coli (No. 33310, purchased from Chengdu Institute of Biological Products, the Ministry of Public Health) was used in the tests. Grid design was performed by using antibiotic with different concentrations and N-acetyl-D-glucosamine having an amount of from 10 mg to 300 mg. Streak plates were conducted separately, and K-B method was employed for drugs. Colonies at marginal part of drug inhibition zone were picked and were observed under microscope. If cell length was more than 50 μm and cell number was more than 5 in each visual field, it was deemed as CGC positive and was marked with “+”; while if cell length was not greater than 50 μm and cell number was within the range from 0 to 4 in each visual field, it was deemed as CGC negative and was marked with “−”. At this time, the ratio of two substances was called “effective ratio”.
(§2) Effects tests of compound preparation comprising N-acetyl-D-glucosamine and antibiotics for preventing the formation of bacterial CGC in vitro.
(§3) The tests were carried out in vitro, wherein gram-negative amphimicrodes, gram-negative anaerobes and gram-positive aerobes were separately coated on streak plates, test drugs and control drugs were separately dissolved with same volume of sterile water for injection, 10 μl of each drug was used for preparing drug-sensitive paper, K-B method was employed in the tests of drugs, and the inhibition situations of CGC formation were observed.

Diphtheroid bacillus = assay: as above; format: cell-based
Description: as §1, §2, §3

Listeria = assay: as above; format: cell-based
Description: as §1, §2, §3

Klebsiella = assay: as above; format: cell-based
Description: as §1, §2, §3

E. coli = assay: as above; format: cell-based
Description: as §1, §2, §3

Bacillus cereus = assay: as above; format: cell-based
Description: as §1, §2, §3

Bacillus proteus = assay: as above; format: cell-based
Description: as §1, §2, §3

Citro Bacter = assay: as above; format: cell-based
Description: as §1, §2, §3

Bacteroides fragilis = assay: as above; format: cell-based
Description: as §1, §2, §3

[2] = test system: rats infected and not infected by Bacillus typhi murium; format: in vivo, Wistar rats; settings: rats infected or not by Bacillus typhi murium, consecutive week, 15 rats per group
[3] = first of three values given respectively: electric stimulation
[4] = second of three values given respectively: intragastric administration with fructus zanthoxyli water
[5] = third of three values given respectively: cold, constraint etc.
[6] = compound preparation 150 mg N-acetyl-D-glucosamine + 150 mg ampicillin, control ampicillin
[7] = compound preparation 100 mg N-acetyl-D-glucosamine + 300 mg cefuroxime, control 300 mg cefuroxime
[8] = compound preparation N-acetyl-D-glucosamine (100 mg) and chloramphenicol (400 mg), control chloramphenicol (400 mg)
[9] = compound preparation 100 mg N-acetyl-D-glucosamine + 400 mg norfloxacin, control norfloxacin same dose

## CC1(C)S[C@@H]2[C@H](NC(=O)[C@H](N)c3ccccc3)C(=O)N2[C@H]1C(=O)O [Ampicillin, ampicillin]
[1]; [3]
  incidence rate of IBS: 33%
[1]
  CGCs in the rat stools after one week of drug withdrawal: still present
  CGCs in the stools of the rats: a large amount of CGCs appeared
[1]; [4]
  incidence rate of IBS: 33%
[1]; [5]
  incidence rate of IBS: 33%
Nucleic Acid Bacter; [6]
  CGC formation: + (If cell length was more than 50 μm and cell number was more than 5 in each visual field, it was deemed as CGC positive and was marked with “+”)
Diphtheroid bacillus; [6]
  CGC formation: + (If cell length was more than 50 μm and cell number was more than 5 in each visual field, it was deemed as CGC positive and was marked with “+”)
Listeria; [6]
  CGC formation: + (If cell length was more than 50 μm and cell number was more than 5 in each visual field, it was deemed as CGC positive and was marked with “+”)
Klebsiella; [6]
  CGC formation: + (If cell length was more than 50 μm and cell number was more than 5 in each visual field, it was deemed as CGC positive and was marked with “+”)
E. coli; [6]
  CGC formation: + (If cell length was more than 50 μm and cell number was more than 5 in each visual field, it was deemed as CGC positive and was marked with “+”)
Bacillus cereus; [6]
  CGC formation: + (If cell length was more than 50 μm and cell number was more than 5 in each visual field, it was deemed as CGC positive and was marked with “+”)
Bacillus proteus; [6]
  CGC formation: + (If cell length was more than 50 μm and cell number was more than 5 in each visual field, it was deemed as CGC positive and was marked with “+”)
Citro Bacter; [6]
  CGC formation: + (If cell length was more than 50 μm and cell number was more than 5 in each visual field, it was deemed as CGC positive and was marked with “+”)
Bacteroides fragilis; [6]
  CGC formation: + (If cell length was more than 50 μm and cell number was more than 5 in each visual field, it was deemed as CGC positive and was marked with “+”)
[2]; N-acetyl-D-glucosamine (100 mg)+ampicillin (200 mg) vs only ampicillin
  positive rates of stool CGC and intestinal mucosa CGC: 100%

## CO/N=C(\C(=O)N[C@@H]1C(=O)N2C(C(=O)O)=C(COC(N)=O)CS[C@H]12)c1ccco1 [Cefuroxime, cefuroxime]
[1]; [3]
  incidence rate of IBS: 33%
[1]
  CGCs in the rat stools after one week of drug withdrawal: still present
  CGCs in the stools of the rats: a large amount of CGCs appeared
[1]; [4]
  incidence rate of IBS: 33%
[1]; [5]
  incidence rate of IBS: 33%
Nucleic Acid Bacter; [7]
  CGC formation: + (If cell length was more than 50 μm and cell number was more than 5 in each visual field, it was deemed as CGC positive and was marked with “+”)
Diphtheroid bacillus; [7]
  CGC formation: + (If cell length was more than 50 μm and cell number was more than 5 in each visual field, it was deemed as CGC positive and was marked with “+”)
Listeria; [7]
  CGC formation: + (If cell length was more than 50 μm and cell number was more than 5 in each visual field, it was deemed as CGC positive and was marked with “+”)
Klebsiella; [7]
  CGC formation: + (If cell length was more than 50 μm and cell number was more than 5 in each visual field, it was deemed as CGC positive and was marked with “+”)
E. coli; [7]
  CGC formation: + (If cell length was more than 50 μm and cell number was more than 5 in each visual field, it was deemed as CGC positive and was marked with “+”)
Bacillus cereus; [7]
  CGC formation: + (If cell length was more than 50 μm and cell number was more than 5 in each visual field, it was deemed as CGC positive and was marked with “+”)
Bacillus proteus; [7]
  CGC formation: + (If cell length was more than 50 μm and cell number was more than 5 in each visual field, it was deemed as CGC positive and was marked with “+”)
Citro Bacter; [7]
  CGC formation: + (If cell length was more than 50 μm and cell number was more than 5 in each visual field, it was deemed as CGC positive and was marked with “+”)
Bacteroides fragilis; [7]
  CGC formation: + (If cell length was more than 50 μm and cell number was more than 5 in each visual field, it was deemed as CGC positive and was marked with “+”)
[2]; N-acetyl-D-glucosamine (100 mg)+cefuroxime (300 mg) vs antibiotic only
  positive rates of stool CGC and intestinal mucosa CGC: 100%

## O=C(N[C@H](CO)[C@H](O)c1ccc([N+](=O)[O-])cc1)C(Cl)Cl [Chloramphenicol, chloramphenicol]
[1]; [3]
  incidence rate of IBS: 33%
[1]
  CGCs in the rat stools after one week of drug withdrawal: still present
  CGCs in the stools of the rats: a large amount of CGCs appeared
[1]; [4]
  incidence rate of IBS: 33%
[1]; [5]
  incidence rate of IBS: 33%
Nucleic Acid Bacter; [8]
  CGC formation: + (If cell length was more than 50 μm and cell number was more than 5 in each visual field, it was deemed as CGC positive and was marked with “+”)
Diphtheroid bacillus; [8]
  CGC formation: + (If cell length was more than 50 μm and cell number was more than 5 in each visual field, it was deemed as CGC positive and was marked with “+”)
Listeria; [8]
  CGC formation: + (If cell length was more than 50 μm and cell number was more than 5 in each visual field, it was deemed as CGC positive and was marked with “+”)
Klebsiella; [8]
  CGC formation: + (If cell length was more than 50 μm and cell number was more than 5 in each visual field, it was deemed as CGC positive and was marked with “+”)
E. coli; [8]
  CGC formation: + (If cell length was more than 50 μm and cell number was more than 5 in each visual field, it was deemed as CGC positive and was marked with “+”)
Bacillus cereus; [8]
  CGC formation: + (If cell length was more than 50 μm and cell number was more than 5 in each visual field, it was deemed as CGC positive and was marked with “+”)
Bacillus proteus; [8]
  CGC formation: + (If cell length was more than 50 μm and cell number was more than 5 in each visual field, it was deemed as CGC positive and was marked with “+”)
Citro Bacter; [8]
  CGC formation: + (If cell length was more than 50 μm and cell number was more than 5 in each visual field, it was deemed as CGC positive and was marked with “+”)
Bacteroides fragilis; [8]
  CGC formation: + (If cell length was more than 50 μm and cell number was more than 5 in each visual field, it was deemed as CGC positive and was marked with “+”)
[2]; N-acetyl-D-glucosamine (100 mg)+chloramphenical (400 mg) vs only chloramphenicol
  positive rates of stool CGC and intestinal mucosa CGC: 100%

## CCn1cc(C(=O)O)c(=O)c2cc(F)c(N3CCNCC3)cc21 [Norfloxacin, norfloxacin]
Nucleic Acid Bacter; [9]
  CGC formation: + (If cell length was more than 50 μm and cell number was more than 5 in each visual field, it was deemed as CGC positive and was marked with “+”)
Diphtheroid bacillus; [9]
  CGC formation: + (If cell length was more than 50 μm and cell number was more than 5 in each visual field, it was deemed as CGC positive and was marked with “+”)
Listeria; [9]
  CGC formation: + (If cell length was more than 50 μm and cell number was more than 5 in each visual field, it was deemed as CGC positive and was marked with “+”)
Klebsiella; [9]
  CGC formation: + (If cell length was more than 50 μm and cell number was more than 5 in each visual field, it was deemed as CGC positive and was marked with “+”)
E. coli; [9]
  CGC formation: + (If cell length was more than 50 μm and cell number was more than 5 in each visual field, it was deemed as CGC positive and was marked with “+”)
Bacillus cereus; [9]
  CGC formation: + (If cell length was more than 50 μm and cell number was more than 5 in each visual field, it was deemed as CGC positive and was marked with “+”)
Bacillus proteus; [9]
  CGC formation: + (If cell length was more than 50 μm and cell number was more than 5 in each visual field, it was deemed as CGC positive and was marked with “+”)
Citro Bacter; [9]
  CGC formation: + (If cell length was more than 50 μm and cell number was more than 5 in each visual field, it was deemed as CGC positive and was marked with “+”)
Bacteroides fragilis; [9]
  CGC formation: + (If cell length was more than 50 μm and cell number was more than 5 in each visual field, it was deemed as CGC positive and was marked with “+”)

## CO[C@@]1(NC(=O)Cc2cccs2)C(=O)N2C(C(=O)O)=C(COC(N)=O)CS[C@@H]21 [cefoxitin]
[1]; [3]
  incidence rate of IBS: 33%
[1]
  CGCs in the rat stools after one week of drug withdrawal: still present
  CGCs in the stools of the rats: a large amount of CGCs appeared
[1]; [4]
  incidence rate of IBS: 33%
[1]; [5]
  incidence rate of IBS: 33%
[2]; N-acetyl-D-glucosamine (100 mg)+cefoxitin (150 mg) vs only cefoxitin
  positive rates of stool CGC and intestinal mucosa CGC: 100%

## O=C(O)c1cn(C2CC2)c2cc(N3CCNCC3)c(F)cc2c1=O [ciprofloxacin]
[2]; N-acetyl-D-glucosamine (100 mg)+ciprofloxacin (500 mg) vs only ciprofloxacin
  positive rates of stool CGC and intestinal mucosa CGC: 100%
